Experiments:
[1] = molecular target: T1, Protein mono-ADP-ribosyltransferase PARP15 (Homo sapiens, UniProt Q460N3); test: Inhibition of N-terminal MBP tagged/C-terminal PARP15 (unknown origin) expressed in Escherichia coli in presence of NAD+
T1 sequence (Q460N3 whole entry): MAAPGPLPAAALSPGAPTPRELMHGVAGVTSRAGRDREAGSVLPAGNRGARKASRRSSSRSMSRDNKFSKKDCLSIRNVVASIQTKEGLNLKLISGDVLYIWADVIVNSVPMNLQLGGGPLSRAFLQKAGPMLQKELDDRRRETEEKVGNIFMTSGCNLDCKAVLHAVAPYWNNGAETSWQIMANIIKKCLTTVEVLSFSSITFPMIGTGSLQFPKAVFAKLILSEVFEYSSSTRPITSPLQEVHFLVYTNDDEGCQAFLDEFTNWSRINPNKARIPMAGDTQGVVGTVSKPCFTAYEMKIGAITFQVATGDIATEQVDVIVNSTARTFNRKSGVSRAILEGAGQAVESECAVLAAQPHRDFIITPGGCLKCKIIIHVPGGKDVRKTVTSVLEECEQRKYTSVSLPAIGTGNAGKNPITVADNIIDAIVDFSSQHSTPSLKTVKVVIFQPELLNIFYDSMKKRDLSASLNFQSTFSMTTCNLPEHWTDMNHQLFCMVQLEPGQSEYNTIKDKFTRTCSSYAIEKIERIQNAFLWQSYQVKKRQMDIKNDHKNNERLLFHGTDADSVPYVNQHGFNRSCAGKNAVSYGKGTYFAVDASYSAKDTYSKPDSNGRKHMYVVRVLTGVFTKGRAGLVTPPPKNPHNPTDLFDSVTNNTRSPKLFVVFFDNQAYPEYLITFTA

[2] = molecular target: T2, Protein mono-ADP-ribosyltransferase PARP10 (Homo sapiens, UniProt Q53GL7); test: Inhibition of N-terminal MBP tagged/C-terminal PARP10 (unknown origin) expressed in Escherichia coli in presence of NAD+
T2 sequence (Q53GL7 whole entry): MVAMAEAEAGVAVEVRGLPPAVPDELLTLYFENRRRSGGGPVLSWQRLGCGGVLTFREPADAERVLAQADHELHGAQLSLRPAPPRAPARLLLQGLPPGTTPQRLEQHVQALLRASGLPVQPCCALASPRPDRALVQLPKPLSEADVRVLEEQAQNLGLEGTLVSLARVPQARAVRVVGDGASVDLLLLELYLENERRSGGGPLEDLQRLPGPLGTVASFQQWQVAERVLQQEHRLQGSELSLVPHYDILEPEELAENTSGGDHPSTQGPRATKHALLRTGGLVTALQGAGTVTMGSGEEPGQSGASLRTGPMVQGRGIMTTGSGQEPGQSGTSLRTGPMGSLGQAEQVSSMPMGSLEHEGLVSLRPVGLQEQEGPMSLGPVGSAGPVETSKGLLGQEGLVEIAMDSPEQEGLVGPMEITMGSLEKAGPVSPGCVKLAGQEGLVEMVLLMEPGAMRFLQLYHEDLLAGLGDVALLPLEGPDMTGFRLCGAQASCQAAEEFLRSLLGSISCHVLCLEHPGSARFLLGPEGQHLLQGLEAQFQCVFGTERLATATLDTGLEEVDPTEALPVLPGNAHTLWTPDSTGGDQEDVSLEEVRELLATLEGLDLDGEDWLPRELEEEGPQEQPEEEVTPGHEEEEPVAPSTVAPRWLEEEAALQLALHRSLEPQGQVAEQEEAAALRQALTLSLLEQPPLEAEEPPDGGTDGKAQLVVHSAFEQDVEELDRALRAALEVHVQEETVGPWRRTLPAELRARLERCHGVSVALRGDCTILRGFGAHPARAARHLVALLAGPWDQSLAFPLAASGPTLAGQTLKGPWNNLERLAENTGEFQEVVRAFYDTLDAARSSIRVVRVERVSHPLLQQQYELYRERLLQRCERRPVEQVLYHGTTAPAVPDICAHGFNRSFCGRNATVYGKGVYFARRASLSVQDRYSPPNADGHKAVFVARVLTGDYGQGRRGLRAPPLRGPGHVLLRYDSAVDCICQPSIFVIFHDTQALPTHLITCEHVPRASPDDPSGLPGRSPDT

[3] = Stability of the compound in MeOH measured upto 24 hrs by UV/LC-MS analysis; type: physicochemical
[4] = Stability of the compound in PBS buffer at pH 7.4 measured upto 24 hrs by UV/LC-MS analysis; type: physicochemical; conditions: pH 7.4, 24 h
HEK-293T = test: Cytotoxicity in […] cells at 10 to 100 uM measured after 24 hrs by WST-1 based colorimetric assay; type: toxicity, cell-based; conditions: human, dose 10-100 µM
[5] = Stability in human plasma measured upto 24 hrs by UV/LC-MS analysis; type: ADME, cell-free
[6] = molecular target: Protein mono-ADP-ribosyltransferase PARP6 (Homo sapiens, UniProt Q2NL67); test: Inhibition of N-terminal 6 His-MBP tagged human PARP6 expressed in Sf21 cells incubated for 18 hrs in presence of NAD+
[7] = molecular target: T3, Protein mono-ADP-ribosyltransferase TIPARP (Homo sapiens, UniProt Q7Z3E1); test: Inhibition of N-terminal MBP tagged/C-terminal PARP7 (unknown origin) expressed in Escherichia coli in presence of NAD+ by proximity enhanced assay
T3 sequence (Q7Z3E1 whole entry): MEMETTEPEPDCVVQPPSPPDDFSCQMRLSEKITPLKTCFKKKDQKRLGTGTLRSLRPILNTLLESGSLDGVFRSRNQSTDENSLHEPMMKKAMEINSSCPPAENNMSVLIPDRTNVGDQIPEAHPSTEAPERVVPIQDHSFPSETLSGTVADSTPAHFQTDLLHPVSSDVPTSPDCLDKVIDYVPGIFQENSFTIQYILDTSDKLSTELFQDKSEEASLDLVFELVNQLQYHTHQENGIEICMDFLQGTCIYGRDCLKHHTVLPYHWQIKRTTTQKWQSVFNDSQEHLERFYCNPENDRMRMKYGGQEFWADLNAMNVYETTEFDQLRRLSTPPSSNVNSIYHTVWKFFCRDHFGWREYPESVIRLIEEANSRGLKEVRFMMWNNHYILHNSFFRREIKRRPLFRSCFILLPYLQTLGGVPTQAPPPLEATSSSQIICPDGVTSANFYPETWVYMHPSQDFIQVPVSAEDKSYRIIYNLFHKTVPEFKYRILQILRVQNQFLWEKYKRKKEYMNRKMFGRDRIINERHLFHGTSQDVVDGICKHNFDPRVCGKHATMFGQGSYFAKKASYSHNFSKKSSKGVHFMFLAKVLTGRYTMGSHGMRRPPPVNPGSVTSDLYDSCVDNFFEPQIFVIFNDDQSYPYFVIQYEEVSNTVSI

Chain of Protein mono-ADP-ribosyltransferase PARP6 (Q2NL67 whole entry): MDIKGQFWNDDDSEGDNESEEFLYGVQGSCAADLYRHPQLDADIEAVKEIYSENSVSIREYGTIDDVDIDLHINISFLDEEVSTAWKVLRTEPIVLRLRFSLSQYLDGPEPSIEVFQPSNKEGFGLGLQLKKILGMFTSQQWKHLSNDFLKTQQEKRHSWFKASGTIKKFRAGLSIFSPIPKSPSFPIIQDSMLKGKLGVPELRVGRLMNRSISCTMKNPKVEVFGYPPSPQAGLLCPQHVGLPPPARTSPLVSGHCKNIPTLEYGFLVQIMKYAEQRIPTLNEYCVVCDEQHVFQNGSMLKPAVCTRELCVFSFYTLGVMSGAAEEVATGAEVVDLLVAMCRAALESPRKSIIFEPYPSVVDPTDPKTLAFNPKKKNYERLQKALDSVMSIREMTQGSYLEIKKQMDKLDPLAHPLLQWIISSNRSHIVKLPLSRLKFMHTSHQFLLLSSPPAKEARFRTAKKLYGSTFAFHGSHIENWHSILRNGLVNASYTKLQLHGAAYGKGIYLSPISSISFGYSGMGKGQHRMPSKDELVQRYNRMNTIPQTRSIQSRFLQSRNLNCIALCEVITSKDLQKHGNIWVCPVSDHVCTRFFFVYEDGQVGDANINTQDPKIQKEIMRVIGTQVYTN

SMILES | IC50 [1] | IC50 [2] | Activity (HEK-293T) | other results
COc1ccc(OC)c2c1sc1nnc(S)n12 | Not Active | Not Active |  | 
COc1ccc(OC)c2c1sc1nnc(NC(=O)c3ccc(Cl)cc3)n12 |  | Not Active |  | 
COc1ccc(OC)c2c1sc1nnc(N)n12 |  |  | Non-Toxic | Stability [3]: > 24 h; Stability [4]: > 24 h; Stability [5]: > 24 h
Oc1ccc2c(c1)sc1nncn12 |  |  | Non-Toxic | IC50 [6]: Not Active; Stability [3]: > 24 h; Stability [4]: > 24 h; IC50 [7]: Not Active; Stability [5]: > 24 h
COc1ccc(OC)c2c1sc1nnc(NC(=O)C(C)(C)C)n12 | Not Active | Not Active |  | 
Cc1ccc2c(c1)sc1nnc(NCc3ccc(Cl)cc3)n12 |  | Not Active |  | 
COc1ccc(OC)c2c1sc1nnc(NC(C)=O)n12 | Not Active | Not Active |  | 
Oc1ccc(O)c2c1sc1nncn12 |  |  | Toxic | 
COc1ccc(OC)c2c1sc1nnc(SC)n12 | Not Active | Not Active |  | 
Cc1ccc2c(c1)sc1nnc(N)n12 |  |  | Non-Toxic | Stability [3]: > 24 h; Stability [4]: > 24 h; Stability [5]: > 24 h
CC(C)c1ccc2c(c1)sc1nncn12 |  |  | Toxic | 

From ChEMBL document CHEMBL5316303, “[1,2,4]Triazolo[3,4-b]benzothiazole Scaffold as Versatile Nicotinamide Mimic Allowing Nanomolar Inhibition of Different PARP Enzymes” (J Med Chem, 2023)
